Experimental data as given in patent publication US12384789B2, “Compounds for treating Huntington's disease” (PTC Therapeutics, Inc., priority 2017, dated 2025).

System: Endogenous Huntingtin Protein
Experiment: Endogenous Huntingtin Protein Assay (Meso Scale Discovery ELISA-based electrochemiluminescence)
Type: cell-based
Conditions: MSD electrochemiluminescence, Table 1
How it was run: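 MSD electrochemiluminescence sandwich ELISA: MW1 (expanded polyQ) or MAB2166 capture antibody at 1 μg/mL, samples incubated overnight at 4° C. Detection with rabbit monoclonal #5656S then SULFO-TAG anti-rabbit antibody, each 0.25 μg/mL for 1 h at room temperature.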

IC50 [nM]	SMILES
100 to 500	Cc1cc(-c2cc3c(F)cc(C4=CCCNCC4)cc3nn2)cc2cn(C)nc12 [Compound 198, 3-(2,7-dimethyl-2H-indazol-5-yl)-5-fluoro-7-(2,3,6,7-tetrahydro-1H-azepin-4-yl)cinnoline]
≤ 100	Cc1cn2nc(-c3cc(F)c4cc(C5CCCN(CCF)CC5)nnc4c3)cc(C)c2n1 (stereo not shown) [Compound 199, 7-(2,8-dimethylimidazo[1,2-b]pyridazin-6-yl)-5-fluoro-3-[1-(2-fluoroethyl)azepan-4-yl]cinnoline]
≤ 100	CCN1CCC(c2cc3c(F)cc(-c4cc(Oc5ccccc5)c5nc(C)cn5n4)cc3nn2)CC1 [Compound 200, 3-(1-ethylpiperidin-4-yl)-5-fluoro-7-(2-methyl-8-phenoxyimidazo[1,2-b]pyridazin-6-yl)cinnoline]
≤ 100	CCN1CCC(c2cc(F)c3nc(-c4cc(F)c5nn(C)cc5c4)ncc3c2)CC1 [Compound 202, 6-(1-ethylpiperidin-4-yl)-8-fluoro-2-(7-fluoro-2-methyl-2H-indazol-5-yl)quinazoline]
500 to 1000	Cc1cc(-c2cc3c(F)cc([C@@]4(O)CCNC[C@@H]4O)cc3nn2)cc2cn(C)nc12 [Compound 203, (3S,4S)-4-[3-(2,7-dimethyl-2H-indazol-5-yl)-5-fluorocinnolin-7-yl]piperidine-3,4-diol]
≤ 100	CCCc1cc(-c2cc(F)c3cc(C4CCNCC4)nnc3c2)nn2cc(C)nc12 [Compound 204, 5-fluoro-7-(2-methyl-8-propylimidazo[1,2-b]pyridazin-6-yl)-3-(piperidin-4-yl)cinnoline]
100 to 500	CCN1CCC(c2cc3c(F)cc(-c4cc(CC#N)c5nc(C)cn5n4)cc3nn2)CC1 [Compound 205, {6-[3-(1-ethylpiperidin-4-yl)-5-fluorocinnolin-7-yl]-2-methylimidazo[1,2-b]pyridazin-8-yl}acetonitrile]
≤ 100	CCN1CCC(c2cc3c(F)cc(-c4cc(CCO)c5nc(C)cn5n4)cc3nn2)CC1 [Compound 206]
≤ 100	Cc1cn2nc(-c3cc(F)c4cc(C5CCNCC5)nnc4c3)cc(CCO)c2n1 [Compound 207, 2-{6-[5-fluoro-3-(piperidin-4-yl)cinnolin-7-yl]-2-methylimidazo[1,2-b]pyridazin-8-yl}ethan-1-ol]
100 to 500	Cc1cn2nc(-c3cc(F)c4cc(C5=CC(C)(C)NC(C)(C)C5)nnc4c3)cc(C)c2n1 [Compound 208, 7-(2,8-dimethylimidazo[1,2-b]pyridazin-6-yl)-5-fluoro-3-(2,2,6,6-tetramethyl-1,2,3,6-tetrahydropyridin-4-yl)cinnoline]
100 to 500	Cc1cn2nc(-c3cc(F)c4cc(N5CC6CC5CN6C)nnc4c3)cc(C)c2n1 (stereo not shown) [Compound 209, 7-(2,8-dimethylimidazo[1,2-b]pyridazin-6-yl)-5-fluoro-3-(5-methyl-2,5-diazabicyclo[2.2.1]heptan-2-yl)cinnoline]
≤ 100	Cc1cn2cc(-c3cc(F)c4cc(C5CCNCC5)nnc4c3)ccc2n1 [Compound 210, 5-fluoro-7-(2-methylimidazo[1,2-a]pyridin-6-yl)-3-(piperidin-4-yl)cinnoline]
≤ 100	Cc1cn2nc(-c3cc(F)c4cc(C5CCNCC5)nnc4c3)cc(C(C)C)c2n1 [Compound 211, 5-fluoro-7-[2-methyl-8-(propan-2-yl)imidazo[1,2-b]pyridazin-6-yl]-3-(piperidin-4-yl)cinnoline]
100 to 500	CCCc1cc(-c2cc(F)c3cc(C4CCN(CC)CC4)nnc3c2)nn2cc(C)nc12 [Compound 212, 3-(1-ethylpiperidin-4-yl)-5-fluoro-7-(2-methyl-8-propylimidazo[1,2-b]pyridazin-6-yl)cinnoline]
100 to 500	Cc1cc2oc(-c3cc(F)c4cc(C5CCN(CCO)CC5)nnc4c3)nc2c(C)n1 [Compound 213, 2-{4-[7-(4,6-dimethyl[1,3]oxazolo[4,5-c]pyridin-2-yl)-5-fluorocinnolin-3-yl]piperidin-1-yl}ethan-1-ol]
100 to 500	Cc1cc2oc(-c3cc(F)c4cc(C5CCN(C)CC5)nnc4c3)nc2c(C)n1 [Compound 214, 7-(4,6-dimethyl[1,3]oxazolo[4,5-c]pyridin-2-yl)-5-fluoro-3-(1-methylpiperidin-4-yl)cinnoline]
≤ 100	Cc1cn2nc(-c3cc(F)c4cc(N5C[C@@H]6C[C@H]5CN6C)nnc4c3)cc(C)c2n1 [Compound 215, 7-(2,8-dimethylimidazo[1,2-b]pyridazin-6-yl)-5-fluoro-3-[(1S,4S)-5-methyl-2,5-diazabicyclo[2.2.1]heptan-2-yl]cinnoline]
≤ 100	Cc1cn2nc(-c3cc(F)c4cc(C5CCCNC5)nnc4c3)cc(C)c2n1 (stereo not shown) [Compound 216, 7-(2,8-dimethylimidazo[1,2-b]pyridazin-6-yl)-5-fluoro-3-(piperidin-3-yl)cinnoline]
≤ 100	Cc1cn2nc(-c3cc(F)c4cc(N5CC6(CCNC6)C5)nnc4c3)cc(C)c2n1 [Compound 217, 3-(2,6-diazaspiro[3.4]octan-2-yl)-7-(2,8-dimethylimidazo[1,2-b]pyridazin-6-yl)-5-fluorocinnoline]
≤ 100	Cc1cn2nc(-c3cc(F)c4cc(N5CC6(CCCNC6)C5)nnc4c3)cc(C)c2n1 [Compound 218, 3-(2,6-diazaspiro[3.5]nonan-2-yl)-7-(2,8-dimethylimidazo[1,2-b]pyridazin-6-yl)-5-fluorocinnoline]
≤ 100	Cc1cn2nc(-c3cc(F)c4cc(N5CCC6(CC5)CNC6)nnc4c3)cc(C)c2n1 [Compound 219, 3-(2,7-diazaspiro[3.5]nonan-7-yl)-7-(2,8-dimethylimidazo[1,2-b]pyridazin-6-yl)-5-fluorocinnoline]
100 to 500	Cc1cn2nc(-c3cc(F)c4cc(N5CCC6(CNC6)C5)nnc4c3)cc(C)c2n1 [Compound 220, 3-(2,6-diazaspiro[3.4]octan-6-yl)-7-(2,8-dimethylimidazo[1,2-b]pyridazin-6-yl)-5-fluorocinnoline]
≤ 100	Cc1cn2nc(-c3cc(F)c4cc(N5CC6(CCNCC6)C5)nnc4c3)cc(C)c2n1 [Compound 221, 3-(2,7-diazaspiro[3.5]nonan-2-yl)-7-(2,8-dimethylimidazo[1,2-b]pyridazin-6-yl)-5-fluorocinnoline]
100 to 500	CCN1CCC(c2cc3c(F)cc(-c4cc(C(C)C)c5nc(C)cn5n4)cc3nn2)CC1 [Compound 222, 3-(1-ethylpiperidin-4-yl)-5-fluoro-7-[2-methyl-8-(propan-2-yl)imidazo[1,2-b]pyridazin-6-yl]cinnoline]
≤ 100	Cc1cn2nc(-c3cc(F)c4cc(N5C[C@@H]6[C@H](C5)[C@H]6N(C)C)nnc4c3)cc(C)c2n1 [Compound 223, (1R,5S,6s)-3-[7-(2,8-dimethylimidazo[1,2-b]pyridazin-6-yl)-5-fluorocinnolin-3-yl]-N,N-dimethyl-3-azabicyclo[3.1.0]hexan-6-amine]
≤ 100	Cc1cn2nc(-c3cc(F)c4cc(N5CCC(C)(N(C)C)CC5)nnc4c3)cc(C)c2n1 [Compound 224, 1-[7-(2,8-dimethylimidazo[1,2-b]pyridazin-6-yl)-5-fluorocinnolin-3-yl]-N,N,4-trimethylpiperidin-4-amine]
≤ 100	Cc1nc2c(C)cc(-c3cc(F)c4cc(C5C[C@@H](C)N(C)[C@@H](C)C5)nnc4c3)nc2o1 (stereo partly drawn) [Compound 226, 5-(5-fluoro-3-((2S,4R,6R)-1,2,6-trimethylpiperidin-4-yl)cinnolin-7-yl)-2,7-dimethyloxazolo[5,4-b]pyridine]
≤ 100	Cc1cc(-c2cc(F)c3cc(C4C[C@@H](C)N(C)[C@@H](C)C4)nnc3c2)nc2cn(C)nc12 (stereo partly drawn) [Compound 227, 7-(2,7-dimethyl-2H-pyrazolo[4,3-b]pyridin-5-yl)-5-fluoro-3-((2S,4R,6R)-1,2,6-trimethylpiperidin-4-yl)cinnoline]
100 to 500	Cc1cc2oc(-c3cc(F)c4cc(C5C[C@@H](C)N(C)[C@@H](C)C5)nnc4c3)nc2c(C)n1 (stereo partly drawn) [Compound 228, 7-(4,6-dimethyloxazolo[4,5-c]pyridin-2-yl)-5-fluoro-3-((2S,4R,6R)-1,2,6-trimethylpiperidin-4-yl)cinnoline]

SMILES	IC50 [nM]
CCN1CC=C(c2cc(F)c3nc(-c4cc(F)c5nn(C)cc5c4)ncc3c2)CC1 [Compound 201, 6-(1-ethyl-1,2,3,6-tetrahydropyridin-4-yl)-8-fluoro-2-(7-fluoro-2-methyl-2H-indazol-5-yl)quinazoline]	≤ 100
Cc1cn2nc(-c3cc(F)c4cc(C5=CCNCC5)nnc4c3)cc(C)c2n1 [Compound 225, 7-(2,8-dimethylimidazo[1,2-b]pyridazin-6-yl)-5-fluoro-3-(1,2,3,6-tetrahydropyridin-4-yl)cinnoline]	≤ 100
